Some test systems named below: Escherichia coli 078; Escherichia coli UB1005; Streptococcus agalactiae; Escherichia coli AB94012; Escherichia coli; Bacillus subtilis; Listeria monocytogenes; Candida albicans SC5314; Staphylococcus aureus.
What all share (test): ≥ marks a high value that may be exact or a test limit, other limits are often not marked, values filed in µg/mL are converted to µM
Assay [1] deals with Staphylococcus aureus ATCC 25923.
For assay [2], the system named is Streptococcus thermophilus YM-C.
The test system of assay [3] is Salmonella enterica subsp. enterica serovar Pullorum ATCC 7913.
Assay [4] concerns Escherichia coli ATCC 25922.
In assay [5] the test system is Streptococcus agalactiae CICC 10465.
Assay [6] concerns Staphylococcus aureus ATCC 29213.
Assay [7] deals with Staphylococcus epidermidis ATCC 12228.
The test system of assay [8] is Salmonella enterica subsp. enterica serovar Typhimurium C77-31.
Assay [9] has as its system Salmonella enterica subsp. enterica serovar Typhimurium ATCC 14028.
Assay [10] relates to Pseudomonas aeruginosa ATCC 27853.
The subject of assay [11] is Lacticaseibacillus rhamnosus 7469.
Assay [12] has as its system Staphylococcus aureus AB6538.
Assay [13] concerns Pseudomonas aeruginosa ATCC 9027.
The test system of assay [14] is Staphylococcus aureus ATCC 6538.
Assay [15] relates to Escherichia coli CICC 10670.
Assay [16] concerns Listeria monocytogenes ATCC 19115.
Assay [17] has as its system Bacillus subtilis CMCC 63501.
Assay [18] deals with Cryptococcus neoformans ATCC 208821.
Assay [19] concerns Candida albicans ATCC 90028.
The test system of assay [20] is Acinetobacter baumannii ATCC 19606.
In assay [21] the test system is Staphylococcus aureus SH1000.
Assay [22] concerns Klebsiella pneumoniae ATCC 700603.
In assay [23] the test system is Staphylococcus aureus ATCC 43300.
Assay [24] deals with Escherichia coli D31 CGSC 5165.
For assay [25], the system named is Pseudomonas aeruginosa ATCC 47085.
In assay [26] the test system is Staphylococcus aureus ATCC 35556.
Assay [27] relates to Candida albicans ATCC 2002.
Assay [28] relates to Candida albicans ATCC 10231.
In assay [29] the test system is Candida albicans 08030401.
Assay [30] concerns Candida albicans 08032815.
Assay [31] relates to Bacillus subtilis ATCC 6633.
Assay [32] concerns Pseudomonas aeruginosa BNCC 125486.
In assay [33] the test system is Escherichia coli BNCC 133264.
Assay [34] has as its system Staphylococcus aureus BNCC 186335.
Assay [35] concerns Staphylococcus aureus ATCC 2592.

These results are taken from DBAASP.

Converted amounts (≈) assume the structure as drawn. “And” between values parts separate entries of the source, which are not always exact repeats. Equal entries are not always repeated.

A word on the MIC: it is the lowest concentration found to suppress growth. Read a low MIC as greater potency. Consider `CC[C@H](C)[C@H](NC(=O)[C@H](CC(C)C)NC(=O)[C@@H](NC(=O)[C@@H](N)CC(=O)O)[C@@H](C)CC)C(=O)N[C@H](C(=O)N[C@H](C(=O)NCC(=O)NCC(=O)N[C@@H](CCCCN)C(=O)N[C@@H](CCC(=O)O)C(=O)N[C@@H](CCCN=C(N)N)C(=O)N[C@@H](CCCCN)C(=O)N[C@@H](CCCCN)C(=O)N[C@@H](CCCN=C(N)N)C(=O)N[C@@H](CCCN=C(N)N)C(=O)N[C@@H](CCCN=C(N)N)C(N)=O)C(C)C)[C@@H](C)CC` [DILIIVGGKERKKRRR], for which the minimum inhibitory concentration (MIC) in [1] is > 64 µM; in [2], ≥ 64 µM; in assay [3] it was ≥ 64 µM; in [4], > 64 µM; in the assay with Escherichia coli 078, ≥ 64 µM; in assay [5], 4 µM (≈ 7.75 µg/mL). Also, the MIC in assay [6] was > 64 µM; in [7], > 64 µM; in assay [8], ≥ 64 µM; in [9] it was > 64 µM; in the assay on Escherichia coli UB1005, ≥ 64 µM; against Streptococcus agalactiae it was 4 µM (≈ 7.75 µg/mL). Further, the values for the MIC in [10] and in assay [11] were > 64 µM and ≥ 64 µM, respectively.

For the molecule `CC[C@H](C)[C@H](NC(=O)[C@H](CCCCN)NC(=O)[C@@H]1CCCN1C(=O)[C@H](CC(C)C)NC(=O)[C@@H](NC(=O)[C@H](CCCCN)NC(=O)CNC(=O)[C@H](CC(C)C)NC(=O)[C@@H](NC(=O)[C@H](CCCCN)NC(=O)CNC(=O)[C@H](CC(C)C)NC(=O)[C@H](CC(C)C)NC(=O)CNC(=O)[C@H](CC(C)C)NC(=O)[C@@H](N)Cc1ccccc1)C(C)C)C(C)C)C(=O)N[C@@H](Cc1ccccc1)C(=O)N[C@@H](CCCCN)C(N)=O` [FLGLLGKVLGKVLPKIFK], the minimal inhibitory concentration (MIC) in assay [4] is 12.7 µM (≈ 25 µg/mL); against Escherichia coli AB94012 it was 6.34 µM (≈ 12.5 µg/mL); in assay [12], 3.17 µM (≈ 6.25 µg/mL); in assay [13], 12.7 µM and 25.4 µM; in assay [10], 12.7 µM (≈ 25 µg/mL).

`CC[C@H](C)[C@H](NC(=O)CN)C(=O)N[C@H](C(=O)N[C@@H](CC(=O)O)C(=O)N[C@@H](CC(C)C)C(=O)N[C@@H](CCCN=C(N)N)C(=O)NCC(=O)N[C@@H](CCSC)C(=O)N[C@@H](CC(C)C)C(=O)N[C@@H](CCCCN)C(=O)N[C@@H](CCCN=C(N)N)C(=O)N[C@@H](CC(C)C)C(=O)N[C@@H](CCCCN)C(=O)N[C@@H](CCCCN)C(=O)N[C@@H](CCSC)C(=O)N[C@@H](CCCCN)C(=O)O)[C@@H](C)O` [GITDLRGMLKRLKKMK]: the minimum inhibitory concentration (MIC) in assay [14] was determined as 2.5 µM (≈ 4.72 µg/mL); in assay [15], 2.5 µM (≈ 4.72 µg/mL); in assay [9], 5 µM (≈ 9.44 µg/mL); in assay [16], 2.5 µM (≈ 4.72 µg/mL); in assay [17], 5 µM (≈ 9.44 µg/mL).

As to `CC[C@H](C)[C@H](NC(=O)[C@H](CC(=O)O)NC(=O)[C@H](Cc1ccccc1)NC(=O)[C@H](CC(C)C)NC(=O)CN)C(=O)N[C@H](C(=O)N[C@@H](CCCCN)C(=O)N[C@@H](CCCCN)C(=O)N[C@H](C(=O)N[C@H](C(=O)N[C@@H](CCCCN)C(=O)N[C@@H](CC(C)C)C(=O)N[C@@H](CC(C)C)C(=O)N[C@@H](CCCCN)C(N)=O)C(C)C)C(C)C)C(C)C` [GLFDIVKKVVKLLK], the minimum inhibitory concentration (MIC) is 20 µM (≈ 32 µg/mL) in assay [18]; > 20 µM in [4]; 20 µM (≈ 32 µg/mL) in assay [19]; > 20 µM in [20]; ≥ 50 µM in assay [21]; > 20 µM in [22]. Besides, the MIC in assay [23] and in assay [10] was > 20 µM each time.

In the case of `CC[C@H](C)[C@H](NC(=O)[C@H](CCCCN)NC(=O)CNC(=O)[C@H](CC(C)C)NC(=O)[C@@H](NC(=O)[C@H](C)NC(=O)[C@H](CCCCN)NC(=O)CNC(=O)[C@H](C)NC(=O)CNC(=O)[C@H](CCCCN)NC(=O)[C@H](CCSC)NC(=O)[C@H](CCCCN)NC(=O)[C@@H](NC(=O)[C@H](Cc1c[nH]c2ccccc12)NC(=O)[C@H](CC(C)C)NC(=O)[C@H](CCC(=O)O)NC(=O)[C@H](CCCCN)NC(=O)[C@H](CC(C)C)NC(=O)[C@@H](N)CC(C)C)[C@@H](C)O)C(C)C)C(=O)N[C@@H](CCCCN)C(=O)NCC(=O)N[C@@H](CC(C)C)C(=O)N[C@@H](CC(C)C)C(=O)O` [LLKELWTKMKGAGKAVLGKIKGLL], the MIC turned out to be 0.94 µM (≈ 2.44 µg/mL) in [24], 1 µM (≈ 2.6 µg/mL) in assay [20], 15 µM (≈ 38.9 µg/mL) in [25] and 15 µM (≈ 38.9 µg/mL) in [26].

`NCCCC[C@H](NC(=O)[C@H](CCCCN)NC(=O)[C@H](Cc1c[nH]c2ccccc12)NC(=O)[C@H](Cc1c[nH]c2ccccc12)NC(=O)[C@H](CCCCN)NC(=O)[C@H](Cc1ccccc1)NC(=O)[C@H](CCCN=C(N)N)NC(=O)[C@H](Cc1c[nH]c2ccccc12)NC(=O)[C@@H](N)CCCN=C(N)N)C(=O)O` [RWRFKWWKK]: the MIC in [1] was 26.4 µM (≈ 37.5 µg/mL); in assay [27], 13 µM (≈ 18.5 µg/mL); in assay [4], 26.4 µM (≈ 37.5 µg/mL); in assay [28], 13 µM (≈ 18.5 µg/mL); in assay [29], 13 µM (≈ 18.5 µg/mL); in assay [30] it was 13 µM (≈ 18.5 µg/mL). Further, the MIC in assay [31] came to 26.4 µM (≈ 37.5 µg/mL).

For `CC(C)[C@H](N)C(=O)N[C@@H](CCCCN)C(=O)N[C@@H](CCCN=C(N)N)C(=O)N[C@@H](Cc1ccccc1)C(=O)N[C@@H](CCCCN)C(=O)N[C@@H](CCCCN)C(=O)N[C@@H](Cc1ccccc1)C(=O)N[C@@H](Cc1ccccc1)C(=O)N[C@@H](CCCN=C(N)N)C(=O)N[C@@H](CCCCN)C(=O)N[C@@H](Cc1ccccc1)C(=O)N[C@@H](CCCCN)C(=O)N[C@@H](CCCCN)C(=O)N[C@@H](Cc1ccccc1)C(=O)N[C@H](C(N)=O)C(C)C` [VKRFKKFFRKFKKFV], the MIC in [4] came out at 4.6 µM (≈ 9.35 µg/mL); against Escherichia coli, 7.87 µM (≈ 16 µg/mL); against Bacillus subtilis, 9.2 µM (≈ 18.7 µg/mL); in [32], 3.93 µM (≈ 8 µg/mL); in assay [33] it was 0.984 µM (≈ 2 µg/mL); with Listeria monocytogenes, 7.87 µM (≈ 16 µg/mL). Further, the MIC in [34] was determined as 1.97 µM (≈ 4 µg/mL); in the assay with Candida albicans SC5314, 4.6 µM (≈ 9.35 µg/mL); in [35], 9.2 µM (≈ 18.7 µg/mL); with Staphylococcus aureus, 3.93 µM (≈ 8 µg/mL).
